Laboratory results reported in patent US20090325944A1, “Methods and Compositions for Modulating Glycosylation” (priority 2006, published 2009).

Target: T1, sOGT (Homo sapiens, UniProt O15294)
T1 construct: ncOGT and sOGT are identical to known splice variants; His8 (C); made in house; host or cells: E. coli BL21(DE3)
T1 sequence (O15294 1-665 isoform O15294-4): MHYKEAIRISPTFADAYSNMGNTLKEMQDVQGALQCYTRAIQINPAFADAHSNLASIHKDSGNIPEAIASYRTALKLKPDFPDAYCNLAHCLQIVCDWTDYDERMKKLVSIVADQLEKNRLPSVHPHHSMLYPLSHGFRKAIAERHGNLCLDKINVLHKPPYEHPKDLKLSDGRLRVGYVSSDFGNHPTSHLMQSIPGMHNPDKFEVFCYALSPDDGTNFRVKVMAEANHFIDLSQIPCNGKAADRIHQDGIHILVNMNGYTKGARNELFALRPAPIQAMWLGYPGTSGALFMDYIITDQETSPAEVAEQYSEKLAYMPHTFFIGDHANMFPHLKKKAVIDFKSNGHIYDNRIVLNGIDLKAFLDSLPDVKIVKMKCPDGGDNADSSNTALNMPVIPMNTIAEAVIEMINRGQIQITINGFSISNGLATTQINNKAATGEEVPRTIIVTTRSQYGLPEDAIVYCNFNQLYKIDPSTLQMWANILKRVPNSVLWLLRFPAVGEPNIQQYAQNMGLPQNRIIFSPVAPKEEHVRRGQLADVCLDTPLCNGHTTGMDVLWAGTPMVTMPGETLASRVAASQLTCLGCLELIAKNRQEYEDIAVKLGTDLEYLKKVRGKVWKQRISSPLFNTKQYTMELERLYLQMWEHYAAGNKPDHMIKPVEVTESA
Assay: Fluorescence polarization displacement of probe 3 from sOGT (validation with UDP and UDP-GlcNAc)
Type: binding
Experimental: 20 μL of this solution is transferred to wells of a 384-well microplate. […] Fluorescence polarization was measured using a Perkin Elmer Envision® microplate reader. Bach series was performed in triplicate and the average of each data point was converted from mP to anisotropy then fitted to the following equation:
[L]0=(KD(Amax−A)/Kd(A−Amin)+1)([E]0−Kd(A−Amin)/(Amax−A)−[t]0(A−Amin)/(Amax−Amin)) eq 3
where A=measured anisotropy at a particular total concentration of ligand (L), sOGT (E) and probe 3 (t), Amin=minimum polarization (i.e., anisotropy of free probe), Amax=final anisotropy (i.e., anisotropy of probe 3 bound entirely to sOGT), KD=dissociation constant of the ligand, Kd=dissociation constant of the probe 3.

Kd (50 nM probe 3, […] sOGT, ligand 50 μM to 98 nM, read-out: KD (dissociation constant) from displacement of probe 3 from sOGT): 800 ± 300 nM
extent of displacement of probe 3 from sOGT (at high concentrations of ligand): completely displaced probe 3 from sOGT
SMILES: O=c1ccn([C@@H]2O[C@H](COP(=O)(O)OP(=O)(O)O)[C@@H](O)[C@H]2O)c(=O)[nH]1 [UDP]
